Laboratory results from US20260184681A1, “PIPERIDINE DERIVATIVE, SALT OF SAME, AND PHARMACEUTICAL COMPOSITION CONTAINING SAME AS ACTIVE INGREDIENT” (PHARMCADD CO., LTD., priority 2022, published 2026).
Structures can show the parent of a compound that is named as a salt.

Tested on: MV4-11, an acute myeloid leukemia cell line
Assay: WST-8 cell viability assay (inhibition of cancer cell proliferation) in MV4-11
Assay type: cell-based
Settings: Homo sapiens, MV4-11 cells, 72 hours, WST-8 assay; for inhibition at 10 µM: compound at 10 μM; for IC50: final concentration 0.02 to 100 μM
Description: In order to confirm the inhibition of cancer cell proliferation of the compound, the WST-8 assay (Cyto X cell viability assay kit, LPS solution, Daejeon, Korea) was performed according to the manufacturer's protocol. MV4-11, an acute myeloid leukemia cell line, was inoculated into a 96-well plate at 3×10^3 per well. The cells were cultured for 24 hours, and treated with the compound at a concentration of 10 μM. After 72 hours, the culture medium was discarded and a chromatographic solution was added. Following a 1-hour incubation at 37° C., color development was observed, and the absorbance was measured at 480 nm using a Versamax microplate reader (Molecular Devices, CA, USA). In addition, in order to confirm the IC50 value of the compound in MV4-11, the cells were treated with the compound with the final concentration of 0.02 to 100 μM in the same manner as the experiment above.

| Compound | inhibition at 10 µM [%] | IC50 [µM] |
| --- | --- | --- |
| COc1cc([N+](=O)[O-])ccc1NC(=O)N1CCCC(Nc2cc(NC(=O)c3ccc(C(C)(C)C)cc3)ccc2C(N)=O)C1 (stereo not shown) [Example B-33, 3-((5-(4-(tert-butyl)benzamido)-2-carbamoylphenyl)amino)-N-(2-methoxy-4-nitrophenyl)piperidine-1-carboxamide] | 80.5 | – |
| CCCCN1CCCC(Nc2cc(NC(=O)c3ccc(C(C)(C)C)cc3)ccc2C(=O)OC)C1 [Example D-4, methyl 4-(4-(tert-butyl)benzamido)-2-((1-butylpiperidin-3-yl)amino)benzoate] | 97.8 | 2.2 |
| CC(C)(C)c1ccc(C(=O)Nc2ccc(C(N)=O)c(NC3CCCN(C(=O)NC4CCCCC4)C3)c2)cc1 (stereo not shown) [Example B-9, 3-((5-(4-(tert-butyl)benzamido)-2-carbamoylphenyl)amino)-N-cyclohexylpiperidine-1-carboxamide] | 94.6 | 2.4 |
| COC(=O)c1ccc(NC(=O)c2ccc(C(C)(C)C)cc2)cc1NC1CCCN(Cc2ccccc2)C1 (stereo not shown) [Example E-1, methyl 2-((1-benzylpiperidin-3-yl)amino)-4-(4-(tert-butyl)benzamido)benzoate] | 70.1 | 2.2 |
| CCCCNC(=O)N1CCCC(Nc2cc(NC(=O)c3ccc(C(C)(C)C)cc3)ccc2C(=O)OC)C1 (stereo not shown) [Example B-4, methyl 4-(4-(tert-butyl)benzamido)-2-((1-(butylcarbamoyl)piperidin-3-yl)amino)benzoate] | 84.6 | 15.3 |
| CC(C)(C)c1ccc(C(=O)Nc2ccc(C(N)=O)c(NC3CCCN(C(=O)Nc4ccccc4)C3)c2)cc1 (stereo not shown) [Example B-12, 3-((5-(4-(tert-butyl)benzamido)-2-carbamoylphenyl)amino)-N-phenylpiperidine-1-carboxamide] | 96.2 | 3.8 |
| CCCCCCCCNC(=O)N1CCCC(Nc2cc(NC(=O)c3ccc(C(C)(C)C)cc3)ccc2C(N)=O)C1 (stereo not shown) [Example B-39, 3-((5-(4-(tert-butyl)benzamido)-2-carbamoylphenyl)amino)-N-octylpiperidine-1-carboxamide] | 100 | 3.26 |
| CC(C)(C)c1ccc(C(=O)Nc2ccc(C(N)=O)c(NC3CCNCC3)c2)cc1 [Example D-11, 4-(tert-butyl)-N-(4-carbamoyl-3-(piperidin-4-ylamino)phenyl)benzamide trifluoroacetate] | 70 | 1.7 |
| CC(C)(C)c1ccc(C(=O)Nc2ccc(C(N)=O)c(NC3CCCN(C(=O)Nc4ccc(C(F)(F)F)cc4)C3)c2)cc1 (stereo not shown) [Example B-36, 3-((5-(4-(tert-butyl)benzamido)-2-carbamoylphenyl)amino)-N-(4-(trifluoromethyl)phenyl)piperidine-1-carboxamide] | 97.2 | 7.81 |
| CN(C)S(=O)(=O)N1CCCC(Nc2cc(NC(=O)c3ccc(C(C)(C)C)cc3)ccc2C(N)=O)C1 (stereo not shown) [Example A-3, 4-(tert-butyl)-N-(4-carbamoyl-3-((1-(N,N-dimethylsulfamoyl)piperidin-3-yl)amino)phenyl)benzamide] | 87.6 | 6.74 |
| COC(=O)c1ccc(NC(=O)c2ccc(C(C)(C)C)cc2)cc1NC1CCCN(C)C1 [Example D-7, methyl 4-(4-(tert-butyl)benzamido)-2-((1-methylpiperidin-3-yl)amino)benzoate] | 100 | 4.59 |
| CC(C)(C)c1ccc(C(=O)Nc2ccc(C(N)=O)c(NC3CCCN(C(=O)Nc4ccc(I)cc4)C3)c2)cc1 (stereo not shown) [Example B-24, 3-((5-(4-(tert-butyl)benzamido)-2-carbamoylphenyl)amino)-N-(4-iodophenyl)piperidine-1-carboxamide] | 94 | 4.68 |
| CC(C)(C)c1ccc(C(=O)Nc2ccc(C(N)=O)c(NC3CCCN(C(=O)c4ccccc4)C3)c2)cc1 (stereo not shown) [Example C-6, N-(3-((1-benzoylpiperidin-3-yl)amino)-4-carbamoylphenyl)-4-(tert-butyl)benzamide] | 97.1 | 4.48 |
| CC(C)S(=O)(=O)N1CCCC(Nc2cc(NC(=O)c3ccc(C(C)(C)C)cc3)ccc2C(N)=O)C1 (stereo not shown) [Example A-18, 4-(tert-butyl)-N-(4-carbamoyl-3-((1-(isopropylsulfonyl)piperidin-3-yl)amino)phenyl)benzamide] | 90.3 | 9.6 |
| CCN1CCCC(Nc2cc(NC(=O)c3ccc(C(C)(C)C)cc3)ccc2C(=O)OC)C1 [Example D-1, methyl 4-(4-(tert-butyl)benzamido)-2-((1-ethylpiperidin-3-yl)amino)benzoate] | 100 | 3.42 |
| CC(C)(C)c1ccc(C(=O)Nc2ccc(C(N)=O)c(NC3CCCNC3)c2)cc1 [Example D-10, 4-(tert-butyl)-N-(4-carbamoyl-3-(piperidin-3-ylamino)phenyl)benzamide trifluoroacetate] | 70 | 2 |
| CN1CCCC(Nc2cc(NC(=O)c3ccc(C(C)(C)C)cc3)ccc2C(N)=O)C1 [Example D-9, 4-(tert-butyl)-N-(4-carbamoyl-3-((1-methylpiperidin-3-yl)amino)phenyl)benzamide] | 100 | 4.3 |
| CCCCN1CCCC(Nc2cc(NC(=O)c3ccc(C(C)(C)C)cc3)ccc2C(N)=O)C1 [Example D-6, 4-(tert-butyl)-N-(3-((1-butylpiperidin-3-yl)amino)-4-carbamoylphenyl)benzamide] | 95.5 | 4.5 |
| CCc1cccc(CC)c1NC(=O)N1CCCC(Nc2cc(NC(=O)c3ccc(C(C)(C)C)cc3)ccc2C(N)=O)C1 (stereo not shown) [Example B-18, 3-((5-(4-(tert-butyl)benzamido)-2-carbamoylphenyl)amino)-N-(2,6-diethylphenyl)piperidine-1-carboxamide] | 93.7 | 5.32 |
| CC(C)(C)c1ccc(C(=O)Nc2ccc(C(N)=O)c(NC3CCCN(S(=O)(=O)Cc4ccccc4)C3)c2)cc1 (stereo not shown) [Example A-15, N-(3-((1-(benzylsulfonyl)piperidin-3-yl)amino)-4-carbamoylphenyl)-4-(tert-butyl)benzamide] | 95.9 | 4.1 |
| CC(C)(C)c1ccc(C(=O)Nc2ccc(C(=O)O)c(NC3CCCN(Cc4ccccc4)C3)c2)cc1 (stereo not shown) [Example E-2, 2-((1-benzylpiperidin-3-yl)amino)-4-(4-(tert-butyl)benzamido)benzoic acid] | 71.1 | 9.6 |
| CC(C)(C)c1ccc(C(=O)Nc2ccc(C(N)=O)c(NC3CCCN(C(=O)NCc4cccc(F)c4)C3)c2)cc1 (stereo not shown) [Example B-15, 3-((5-(4-(tert-butyl)benzamido)-2-carbamoylphenyl)amino)-N-(3-fluorobenzyl)piperidine-1-carboxamide] | 100 | 4.75 |
